Data on 26 compounds can be found in patent publication US11078198B2 (BRISTOL-MYERS SQUIBB COMPANY, priority 2017, dated 2021).

pEC50: −log10 of the molar value.

For the experiment, the target named is T1, human FXR (Homo sapiens, UniProt Q96RI1).
T1 construct: expressed in transfected cells; host or cells: HEK293 cells stably carrying a 5xGal4-response-element firefly luciferase reporter, transiently transfected with pcDNA3.1-Gal4-FXR
T1 sequence (Q96RI1 262-486 limits assumed): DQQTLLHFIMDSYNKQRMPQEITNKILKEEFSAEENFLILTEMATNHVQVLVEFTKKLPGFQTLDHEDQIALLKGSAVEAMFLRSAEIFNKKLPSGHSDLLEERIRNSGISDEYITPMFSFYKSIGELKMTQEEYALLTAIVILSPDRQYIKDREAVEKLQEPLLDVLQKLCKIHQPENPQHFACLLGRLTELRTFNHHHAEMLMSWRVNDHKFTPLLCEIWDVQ
Kind of experiment: transient human FXR/Gal4-luciferase reporter assay. Type of experiment: cell-based. The following applies: Gal4-hFXR transfected HEK293 reporter cells; relative to 8 μM GW-4064. The method, boiled down: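 HEK293 cells stably carrying a 5×Gal4-response-element firefly luciferase reporter, transiently transfected overnight with a CMV-driven Gal4 DNA-binding domain/human FXR ligand-binding domain fusion.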
For orientation: Reporter assays use an easily measured gene product as a stand-in for the process of interest.
On to `CC(C)c1onc(-c2c(Cl)cncc2Cl)c1C1=CC2(CCN(c3ccc4nc(C(=O)O)cc(C(F)(F)F)c4c3)CC2)C1` [Example 95, 6-(2-(3-(3,5-Dichloropyridin-4-yl)-5-isopropylisoxazol-4-yl)-7-azaspiro[3.5]non-1-en-7-yl)-4-(trifluoromethyl)quinoline-2-carboxylic acid], for which the negative-log EC50 (pEC50) (in general, −log10 of the EC50, conventionally taken in molar units) was 7.43. In the case of `O=C(O)c1cc(C(F)(F)F)c2cc(N3CCC4(C=C(c5c(-c6ccc(F)cc6Cl)noc5C5CC5)C4)CC3)ccc2n1` [Example 96, 6-(2-(3-(2-Chloro-4-fluorophenyl)-5-cyclopropylisoxazol-4-yl)-7-azaspiro[3.5]non-1-en-7-yl)-4-(trifluoromethyl)quinoline-2-carboxylic acid] it was 6.06. In the case of `COc1cncc(F)c1-c1noc(C2CC2)c1C1=CC2(CCN(c3ccc4nc(C(=O)O)cc(C(F)(F)F)c4c3)CC2)C1` [Example 97, 6-(2-(5-Cyclopropyl-3-(3-fluoro-5-methoxypyridin-4-yl)isoxazol-4-yl)-7-azaspiro[3.5]non-1-en-7-yl)-4-(trifluoromethyl)quinoline-2-carboxylic acid] it was 5.71; in that of `O=C(O)c1cc(C(F)(F)F)c2cc(N3CCC4(C=C(c5c(C6CCCCC6)noc5C5CC5)C4)CC3)ccc2n1` [Example 98, 6-(2-(3-Cyclohexyl-5-cyclopropylisoxazol-4-yl)-7-azaspiro[3.5]non-1-en-7-yl)-4-(trifluoromethyl)quinoline-2-carboxylic acid], 5.76; in that of `O=C(O)c1cc(C(F)(F)F)c2cc(N3CCC4(C=C(c5c(-c6ccccc6C(F)(F)F)noc5C5CC5)C4)CC3)ccc2n1` [Example 99, 6-(2-(5-Cyclopropyl-3-(2-(trifluoromethyl)phenyl)isoxazol-4-yl)-7-azaspiro[3.5]non-1-en-7-yl)-4-(trifluoromethyl)quinoline-2-carboxylic acid], 7.04. Regarding `O=C(O)c1ccc2nc(N3CCC4(C=C(c5c(-c6c(Cl)cccc6Cl)noc5C5CC5)C4)CC3)cnc2c1` [Example 100, 2-(2-(5-cyclopropyl-3-(2,6-dichlorophenyl)isoxazol-4-yl)-7-azaspiro[3.5]non-1-en-7-yl)quinoxaline-6-carboxylic acid], the pEC50 was 7.48. In the case of `O=C(O)c1ccc2nc(N3CCC4(C=C(c5c(-c6ccccc6C(F)(F)F)noc5C5CC5)C4)CC3)cnc2c1` [Example 101, 2-(2-(5-Cyclopropyl-3-(2-(trifluoromethyl)phenyl)isoxazol-4-yl)-7-azaspiro[3.5]non-1-en-7-yl)quinoxaline-6-carboxylic acid] it was 7.77. Turning to `O=C(O)c1ccc2nc(N3CCC4(C=C(c5c(-c6ccccc6C(F)(F)F)noc5C5CC5)C4)CC3)sc2n1` [Example 102, 2-(2-(5-Cyclopropyl-3-(2-(trifluoromethyl)phenyl)isoxazol-4-yl)-7-azaspiro[3.5]non-1-en-7-yl)thiazolo[5,4-b]pyridine-5-carboxylic acid], the negative-log EC50 (pEC50) was 7.74. This pEC50 and that of the compound before are within 0.2 log units of each other.

Turning to `Cc1cccc(Cl)c1-c1noc(C2CC2)c1C1=CC2(CCN(c3nc4c(F)cc(C(=O)O)cc4s3)CC2)C1` [Example 103, 2-(2-(3-(2-Chloro-6-methylphenyl)-5-cyclopropylisoxazol-4-yl)-7-azaspiro[3.5]non-1-en-7-yl)-4-fluorobenzo[d]thiazole-6-carboxylic acid], the negative-log EC50 (pEC50) was 7.72. `CC(C)Oc1cc(C(=O)O)nc2ccc(N3CCC4(C=C(c5c(-c6ccccc6C(F)(F)F)noc5C5CC5)C4)CC3)cc12` [Example 104, 6-(2-(5-Cyclopropyl-3-(2-(trifluoromethyl)phenyl)isoxazol-4-yl)-7-azaspiro[3.5]non-1-en-7-yl)-4-isopropoxyquinoline-2-carboxylic acid] had a pEC50 of 7.23. The same measure for `COc1cc(C(=O)O)nc2ccc(N3CCC4(C=C(c5c(-c6ccccc6C(F)(F)F)noc5C5CC5)C4)CC3)cc12` [Example 105, 6-(2-(5-Cyclopropyl-3-(2-(trifluoromethyl)phenyl)isoxazol-4-yl)-7-azaspiro[3.5]non-1-en-7-yl)-4-methoxyquinoline-2-carboxylic acid]: 7.21; for `CC(C)Oc1cc(C(=O)O)nc2ccc(N3CCC4(C=C(c5c(-c6ccccc6OC(F)(F)F)noc5C5CC5)C4)CC3)cc12` [Example 106, 6-(2-(5-Cyclopropyl-3-(2-(trifluoromethoxy)phenyl)isoxazol-4-yl)-7-azaspiro[3.5]non-1-en-7-yl)-4-isopropoxyquinoline-2-carboxylic acid]: 7.68. In the case of `CCOc1cc(C(=O)O)nc2ccc(N3CCC4(C=C(c5c(-c6c(Cl)cncc6Cl)noc5C5CC5)C4)CC3)cc12` [Example 107, 6-(2-(5-Cyclopropyl-3-(3,5-dichloropyridin-4-yl)isoxazol-4-yl)-7-azaspiro[3.5]non-1-en-7-yl)-4-ethoxyquinoline-2-carboxylic acid], the negative logarithm of the EC50 (pEC50) is 7.51. This pEC50 and that of the compound before are within 0.2 log units of each other.

In the case of `COc1cc(C(=O)O)nc2ccc(N3CCC4(C=C(c5c(-c6ccncc6Cl)noc5C5CC5)C4)CC3)cc12` [Example 109, 6-(2-(3-(3-Chloropyridin-4-yl)-5-cyclopropylisoxazol-4-yl)-7-azaspiro[3.5]non-1-en-7-yl)-4-methoxyquinoline-2-carboxylic acid], the negative logarithm of the EC50 (pEC50) is 6.85. The same measure for `CC(C)Oc1cc(C(=O)O)nc2ccc(N3CCC4(C=C(c5c(-c6c(Cl)cc(F)cc6Cl)noc5C5CC5)C4)CC3)cc12` [Example 110, 6-(2-(5-Cyclopropyl-3-(2,6-dichloro-4-fluorophenyl)isoxazol-4-yl)-7-azaspiro[3.5]non-1-en-7-yl)-4-isopropoxyquinoline-2-carboxylic acid]: 7.43; for `CC(C)Oc1cc(C(=O)O)nc2ccc(N3CCC4(C=C(c5c(-c6c(Cl)cncc6Cl)noc5C5CC5)C4)CC3)cc12` [Example 111, 6-(2-(5-Cyclopropyl-3-(3,5-dichloropyridin-4-yl)isoxazol-4-yl)-7-azaspiro[3.5]non-1-en-7-yl)-4-isopropoxyquinoline-2-carboxylic acid]: 7.33; for `COc1cc(C(=O)O)nc2ccc(N3CCC4(C=C(c5c(-c6c(Cl)cc(F)cc6Cl)noc5C5CC5)C4)CC3)cc12` [Example 112, 6-(2-(5-Cyclopropyl-3-(2,6-dichloro-4-fluorophenyl)isoxazol-4-yl)-7-azaspiro[3.5]non-1-en-7-yl)-4-methoxyquinoline-2-carboxylic acid]: 7.27. In the case of `CCOc1cc(C(=O)O)nc2ccc(N3CCC4(C=C(c5c(-c6ccccc6OC(F)(F)F)noc5C5CC5)C4)CC3)cc12` [Example 113, 6-(2-(5-Cyclopropyl-3-(2-(trifluoromethoxy)phenyl)isoxazol-4-yl)-7-azaspiro[3.5]non-1-en-7-yl)-4-ethoxyquinoline-2-carboxylic acid] it was 6.94; in that of `O=C(O)c1ccc2nc(N3CCC4(C=C(c5c(-c6c(Cl)cccc6Cl)noc5C5CC5)C4)CC3)oc2c1` [Example 114, 2-(2-(5-Cyclopropyl-3-(2,6-dichlorophenyl)isoxazol-4-yl)-7-azaspiro[3.5]non-1-en-7-yl)benzo[d]oxazole-6-carboxylic acid], 6.90; in that of `Cc1cc(N2CCC3(C=C(c4c(-c5c(Cl)cccc5Cl)noc4C4CC4)C3)CC2)ncc1C(=O)O` [Example 115, 6-(2-(5-Cyclopropyl-3-(2,6-dichlorophenyl)isoxazol-4-yl)-7-azaspiro[3.5]non-1-en-7-yl)-4-methylnicotinic acid], 6.88. In the case of `O=C(O)c1cnc(N2CCC3(C=C(c4c(-c5c(Cl)cccc5Cl)noc4C4CC4)C3)CC2)cc1C(F)(F)F` [Example 116, 6-(2-(5-Cyclopropyl-3-(2,6-dichlorophenyl)isoxazol-4-yl)-7-azaspiro[3.5]non-1-en-7-yl)-4-(trifluoromethyl)nicotinic acid] it was 6.87.

The compound `Cn1cc(C(=O)O)c2cnc(N3CCC4(C=C(c5c(-c6c(Cl)cccc6Cl)noc5C5CC5)C4)CC3)cc21` [Example 117, 6-(2-(5-Cyclopropyl-3-(2,6-dichlorophenyl)isoxazol-4-yl)-7-azaspiro[3.5]non-1-en-7-yl)-1-methyl-1H-pyrrolo[3,2-c]pyridine-3-carboxylic acid] had a negative logarithm of the EC50 (pEC50) of 6.86. In the case of `O=C(O)c1cnc(N2CCC3(C=C(c4c(-c5c(Cl)cccc5Cl)noc4C4CC4)C3)CC2)nc1` [Example 118, 2-(2-(5-Cyclopropyl-3-(2,6-dichlorophenyl)isoxazol-4-yl)-7-azaspiro[3.5]non-1-en-7-yl)pyrimidine-5-carboxylic acid] it was 6.77; in that of `O=C(O)c1cnc(N2CCC3(C=C(c4c(-c5c(Cl)cccc5Cl)noc4C4CC4)C3)CC2)nc1C(F)(F)F` [Example 119, 2-(2-(5-Cyclopropyl-3-(2,6-dichlorophenyl)isoxazol-4-yl)-7-azaspiro[3.5]non-1-en-7-yl)-4-(trifluoromethyl)pyrimidine-5-carboxylic acid], 6.50. Take `Cc1cc(C(=O)O)nc(N2CCC3(C=C(c4c(-c5c(Cl)cccc5Cl)noc4C4CC4)C3)CC2)n1` [Example 120, 2-(2-(5-Cyclopropyl-3-(2,6-dichlorophenyl)isoxazol-4-yl)-7-azaspiro[3.5]non-1-en-7-yl)-6-methylpyrimidine-4-carboxylic acid]: the pEC50 was 5.86. The same measure for `Cc1cc(C(=O)O)cnc1N1CCC2(C=C(c3c(-c4c(Cl)cccc4Cl)noc3C3CC3)C2)CC1` [Example 121, 6-(2-(5-Cyclopropyl-3-(2,6-dichlorophenyl)isoxazol-4-yl)-7-azaspiro[3.5]non-1-en-7-yl)-5-methylnicotinic acid]: 5.59.
